Data published in PMC8799717, “Pharmacological targeting PIKfyve and tubulin as an effective treatment strategy for double-hit lymphoma” (Cell Death Discovery, 2022).

What was measured:
Experiment in all cases: biochemical
Design in all cases: KINOMEscan active-site-directed competition binding panel, 468 kinases, percent of DMSO control at 1 uM
Settings in all cases: KINOMEscan binding, percent of DMSO control; read-out: Ctrl%
[1] = target: T1, ERK8 (Homo sapiens, UniProt Q8TD08)
T1 construct: gene MAPK15

[2] = target: T2, DLK (Homo sapiens, UniProt Q12852)
T2 construct: gene MAP3K12

[3] = target: CAMK2A (Homo sapiens, UniProt Q9UQM7)
[4] = target: PKN1 (Homo sapiens, UniProt Q16512)
[5] = target: T3, CAMK1B (Homo sapiens, UniProt Q6P2M8)
T3 construct: gene PNCK

[6] = target: CSNK1G1 (Homo sapiens, UniProt Q9HCP0)
[7] = target: SRMS (Homo sapiens, UniProt Q9H3Y6)
[8] = target: T4, AMPK-alpha2 (Homo sapiens, UniProt P54646)
T4 construct: gene PRKAA2

[9] = target: T5, ABL1(F317L)-phosphorylated (Homo sapiens, UniProt P00519, F317L)
T5 construct: phosphorylated

[10] = target: TNNI3K (Homo sapiens, UniProt Q59H18)
[11] = target: T6, JAK2(JH1domain-catalytic) (Homo sapiens, UniProt O60674)
T6 construct: JH1domain-catalytic

[12] = target: DYRK2 (Homo sapiens, UniProt Q92630)
[13] = target: PLK2 (Homo sapiens, UniProt Q9NYY3)
[14] = target: PIK3CA(Q546K) (Homo sapiens, UniProt P42336, Q546K)
[15] = target: T7, CDC2L5 (Homo sapiens, UniProt Q14004)
T7 construct: gene CDK13

[16] = target: MAPKAPK2 (Homo sapiens, UniProt P49137)
[17] = target: CDK5 (Homo sapiens, UniProt Q00535)
[18] = target: T8, ABL1-phosphorylated (Homo sapiens, UniProt P00519)
T8 construct: phosphorylated

[19] = target: DMPK (Homo sapiens, UniProt Q09013)
[20] = target: AKT2 (Homo sapiens, UniProt P31751)
[21] = target: TESK1 (Homo sapiens, UniProt Q15569)
[22] = target: T9, BIKE (Homo sapiens, UniProt Q9NSY1)
T9 construct: gene BMP2K

[23] = target: T10, PRP4 (Homo sapiens, UniProt Q13523)
T10 construct: gene PRPF4B

[24] = target: PIK3CA(I800L) (Homo sapiens, UniProt P42336, I800L)

T4 sequence (P54646 whole entry): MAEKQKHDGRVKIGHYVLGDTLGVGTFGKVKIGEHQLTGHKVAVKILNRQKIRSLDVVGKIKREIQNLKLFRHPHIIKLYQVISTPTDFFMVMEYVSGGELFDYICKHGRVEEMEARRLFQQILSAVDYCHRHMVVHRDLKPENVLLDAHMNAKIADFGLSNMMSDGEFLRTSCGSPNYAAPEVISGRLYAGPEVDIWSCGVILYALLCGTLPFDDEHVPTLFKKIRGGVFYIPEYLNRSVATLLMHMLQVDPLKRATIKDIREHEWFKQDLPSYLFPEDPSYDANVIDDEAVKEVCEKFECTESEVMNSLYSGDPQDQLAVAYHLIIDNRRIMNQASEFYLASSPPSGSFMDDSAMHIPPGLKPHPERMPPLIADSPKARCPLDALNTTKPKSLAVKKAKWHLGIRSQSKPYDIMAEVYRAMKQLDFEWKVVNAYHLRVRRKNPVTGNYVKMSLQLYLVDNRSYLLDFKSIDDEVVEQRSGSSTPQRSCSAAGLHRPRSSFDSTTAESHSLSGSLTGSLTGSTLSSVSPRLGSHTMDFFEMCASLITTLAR
Chain of SRMS (Q9H3Y6 whole entry): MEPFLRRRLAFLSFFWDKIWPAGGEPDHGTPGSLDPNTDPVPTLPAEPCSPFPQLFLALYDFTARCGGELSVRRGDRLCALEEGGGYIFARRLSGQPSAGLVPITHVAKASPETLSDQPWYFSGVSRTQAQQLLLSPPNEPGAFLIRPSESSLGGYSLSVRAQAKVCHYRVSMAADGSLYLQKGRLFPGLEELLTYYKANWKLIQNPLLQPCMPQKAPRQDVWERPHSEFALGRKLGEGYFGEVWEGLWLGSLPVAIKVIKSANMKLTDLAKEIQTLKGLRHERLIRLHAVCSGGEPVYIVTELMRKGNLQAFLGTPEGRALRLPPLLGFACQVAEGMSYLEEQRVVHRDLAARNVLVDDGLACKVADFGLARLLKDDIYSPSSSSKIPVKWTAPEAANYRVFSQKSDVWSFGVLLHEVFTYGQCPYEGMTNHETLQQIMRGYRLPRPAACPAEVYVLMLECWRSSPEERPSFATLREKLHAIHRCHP
Chain of TESK1 (Q15569 whole entry): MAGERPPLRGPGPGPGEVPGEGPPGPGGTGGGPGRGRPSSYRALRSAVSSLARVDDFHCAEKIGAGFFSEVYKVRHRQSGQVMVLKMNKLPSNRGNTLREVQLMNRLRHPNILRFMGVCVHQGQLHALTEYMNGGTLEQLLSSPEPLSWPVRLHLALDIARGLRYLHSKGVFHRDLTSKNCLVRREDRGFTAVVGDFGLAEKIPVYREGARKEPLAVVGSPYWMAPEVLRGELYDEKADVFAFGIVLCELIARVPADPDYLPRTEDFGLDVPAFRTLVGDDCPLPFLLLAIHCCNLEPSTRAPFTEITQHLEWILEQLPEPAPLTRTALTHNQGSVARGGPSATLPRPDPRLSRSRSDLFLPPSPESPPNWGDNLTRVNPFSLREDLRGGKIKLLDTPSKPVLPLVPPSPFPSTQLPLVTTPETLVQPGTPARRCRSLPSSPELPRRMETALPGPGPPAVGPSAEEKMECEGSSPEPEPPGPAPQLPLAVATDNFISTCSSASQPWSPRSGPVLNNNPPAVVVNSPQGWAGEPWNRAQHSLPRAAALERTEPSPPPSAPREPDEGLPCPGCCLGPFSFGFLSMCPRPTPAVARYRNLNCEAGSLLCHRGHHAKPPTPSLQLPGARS
T2 sequence (Q12852 whole entry): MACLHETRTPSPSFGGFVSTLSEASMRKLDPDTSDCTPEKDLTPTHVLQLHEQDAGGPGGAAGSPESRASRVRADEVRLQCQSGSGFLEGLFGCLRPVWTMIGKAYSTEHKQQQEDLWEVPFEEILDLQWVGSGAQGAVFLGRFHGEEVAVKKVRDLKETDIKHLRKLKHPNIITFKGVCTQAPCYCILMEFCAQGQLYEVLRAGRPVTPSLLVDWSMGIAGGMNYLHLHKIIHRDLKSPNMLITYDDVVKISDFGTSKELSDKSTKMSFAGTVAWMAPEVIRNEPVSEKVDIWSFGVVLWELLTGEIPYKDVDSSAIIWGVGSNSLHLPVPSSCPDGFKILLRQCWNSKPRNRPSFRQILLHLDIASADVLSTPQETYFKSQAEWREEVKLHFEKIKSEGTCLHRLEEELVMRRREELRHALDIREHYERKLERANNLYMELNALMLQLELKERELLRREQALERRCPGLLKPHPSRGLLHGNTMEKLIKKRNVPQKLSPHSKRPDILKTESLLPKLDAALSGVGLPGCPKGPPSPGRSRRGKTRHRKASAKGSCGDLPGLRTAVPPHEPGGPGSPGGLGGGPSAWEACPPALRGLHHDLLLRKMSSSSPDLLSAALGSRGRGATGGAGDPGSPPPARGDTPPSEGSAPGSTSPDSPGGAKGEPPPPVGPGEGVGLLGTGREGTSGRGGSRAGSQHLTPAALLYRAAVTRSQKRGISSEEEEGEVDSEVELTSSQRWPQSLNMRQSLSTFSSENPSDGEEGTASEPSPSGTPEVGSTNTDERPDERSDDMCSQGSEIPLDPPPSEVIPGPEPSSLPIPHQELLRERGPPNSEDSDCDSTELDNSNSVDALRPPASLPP
Chain of CSNK1G1 (Q9HCP0 whole entry): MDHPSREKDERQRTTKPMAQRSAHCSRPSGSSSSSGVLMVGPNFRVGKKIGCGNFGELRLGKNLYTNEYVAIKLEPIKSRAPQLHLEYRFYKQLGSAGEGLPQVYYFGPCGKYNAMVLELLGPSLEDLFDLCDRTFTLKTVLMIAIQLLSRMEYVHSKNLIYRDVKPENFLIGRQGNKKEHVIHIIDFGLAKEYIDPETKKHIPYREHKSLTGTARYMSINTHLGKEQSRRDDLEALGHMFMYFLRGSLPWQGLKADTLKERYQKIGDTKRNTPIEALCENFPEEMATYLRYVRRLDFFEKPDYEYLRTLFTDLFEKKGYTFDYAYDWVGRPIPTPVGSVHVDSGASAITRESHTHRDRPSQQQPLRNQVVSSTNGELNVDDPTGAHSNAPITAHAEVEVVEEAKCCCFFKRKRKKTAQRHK
Chain of PKN1 (Q16512 whole entry): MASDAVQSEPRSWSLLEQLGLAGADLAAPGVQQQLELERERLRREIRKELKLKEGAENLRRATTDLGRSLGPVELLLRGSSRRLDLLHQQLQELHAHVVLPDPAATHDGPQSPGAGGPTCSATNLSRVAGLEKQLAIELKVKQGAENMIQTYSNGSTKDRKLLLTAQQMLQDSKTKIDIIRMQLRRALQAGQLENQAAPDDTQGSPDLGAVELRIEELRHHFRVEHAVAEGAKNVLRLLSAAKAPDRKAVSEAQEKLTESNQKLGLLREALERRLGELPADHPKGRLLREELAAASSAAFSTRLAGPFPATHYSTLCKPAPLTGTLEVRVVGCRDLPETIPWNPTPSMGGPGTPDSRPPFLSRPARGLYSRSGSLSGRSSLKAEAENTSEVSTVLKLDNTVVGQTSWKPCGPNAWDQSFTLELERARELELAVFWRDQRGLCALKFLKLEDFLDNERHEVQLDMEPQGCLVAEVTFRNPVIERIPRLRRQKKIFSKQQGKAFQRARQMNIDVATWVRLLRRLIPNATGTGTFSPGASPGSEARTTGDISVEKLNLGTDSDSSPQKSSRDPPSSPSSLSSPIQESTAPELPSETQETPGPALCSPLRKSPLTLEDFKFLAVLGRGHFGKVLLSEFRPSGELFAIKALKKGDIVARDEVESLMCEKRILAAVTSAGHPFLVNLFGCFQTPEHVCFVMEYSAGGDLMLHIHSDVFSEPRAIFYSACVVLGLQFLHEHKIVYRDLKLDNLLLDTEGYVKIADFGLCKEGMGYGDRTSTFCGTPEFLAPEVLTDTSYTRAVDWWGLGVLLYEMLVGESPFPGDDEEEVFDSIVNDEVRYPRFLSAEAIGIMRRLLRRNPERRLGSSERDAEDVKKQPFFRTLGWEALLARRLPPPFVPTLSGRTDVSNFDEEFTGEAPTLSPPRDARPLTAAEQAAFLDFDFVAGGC
Chain of TNNI3K (Q59H18 whole entry): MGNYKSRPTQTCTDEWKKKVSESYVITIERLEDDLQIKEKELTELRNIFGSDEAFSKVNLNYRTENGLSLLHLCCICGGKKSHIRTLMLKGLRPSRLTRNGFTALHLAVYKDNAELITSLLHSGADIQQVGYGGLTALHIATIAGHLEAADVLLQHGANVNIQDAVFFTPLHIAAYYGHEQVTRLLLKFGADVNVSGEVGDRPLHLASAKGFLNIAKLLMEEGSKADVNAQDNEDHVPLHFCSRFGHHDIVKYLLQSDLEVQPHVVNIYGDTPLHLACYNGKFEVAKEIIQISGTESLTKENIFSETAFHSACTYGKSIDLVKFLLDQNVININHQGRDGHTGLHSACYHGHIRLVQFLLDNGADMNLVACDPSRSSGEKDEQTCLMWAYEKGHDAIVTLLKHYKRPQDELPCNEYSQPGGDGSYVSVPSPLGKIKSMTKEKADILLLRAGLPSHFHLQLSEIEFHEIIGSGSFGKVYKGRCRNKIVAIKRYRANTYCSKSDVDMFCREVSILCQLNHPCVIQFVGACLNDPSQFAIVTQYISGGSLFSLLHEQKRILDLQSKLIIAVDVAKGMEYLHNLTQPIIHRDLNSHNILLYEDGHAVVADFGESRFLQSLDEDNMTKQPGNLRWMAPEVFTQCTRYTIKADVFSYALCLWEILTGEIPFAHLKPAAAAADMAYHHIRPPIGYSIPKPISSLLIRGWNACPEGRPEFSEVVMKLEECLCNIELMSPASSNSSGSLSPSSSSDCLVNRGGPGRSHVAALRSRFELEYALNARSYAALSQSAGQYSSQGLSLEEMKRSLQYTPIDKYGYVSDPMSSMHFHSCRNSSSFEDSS
Chain of CDK5 (Q00535 whole entry): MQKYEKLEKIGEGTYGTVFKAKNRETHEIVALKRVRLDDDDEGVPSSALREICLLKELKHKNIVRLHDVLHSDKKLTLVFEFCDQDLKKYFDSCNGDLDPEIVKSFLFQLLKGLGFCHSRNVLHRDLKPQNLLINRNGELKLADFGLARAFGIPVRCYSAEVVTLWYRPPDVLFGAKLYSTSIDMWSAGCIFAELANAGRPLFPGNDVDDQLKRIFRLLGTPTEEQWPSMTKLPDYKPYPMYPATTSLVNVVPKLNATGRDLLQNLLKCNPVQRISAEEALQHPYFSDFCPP

Cc1ccc(NC(=O)c2cccc(C(F)(F)F)c2)cc1Nc1cc(-c2cccnc2)nc2[nH]ccc12 [HZX-02-059]
remaining binding at 1 µM [1]: 92% | remaining binding at 1 µM [2]: 100% | remaining binding at 1 µM [3]: 98% | remaining binding at 1 µM [4]: 93% | remaining binding at 1 µM [5]: 98% | remaining binding at 1 µM [6]: 83% | remaining binding at 1 µM [7]: 100% | remaining binding at 1 µM [8]: 90% | remaining binding at 1 µM [9]: 65% | remaining binding at 1 µM [10]: 6.3% | remaining binding at 1 µM [11]: 100% | remaining binding at 1 µM [12]: 88% | remaining binding at 1 µM [13]: 99% | remaining binding at 1 µM [14]: 66% | remaining binding at 1 µM [15]: 100% | remaining binding at 1 µM [16]: 80% | remaining binding at 1 µM [17]: 100% | remaining binding at 1 µM [18]: 55% | remaining binding at 1 µM [19]: 81% | remaining binding at 1 µM [20]: 85% | remaining binding at 1 µM [21]: 77% | remaining binding at 1 µM [22]: 94% | remaining binding at 1 µM [23]: 69% | remaining binding at 1 µM [24]: 81%
